Some results are limits rather than exact numbers.

The target in data set [1] is PAS domain-containing serine/threonine-protein kinase (Homo sapiens, UniProt Q96RG2). The data set is described as follows: Inhibition of human recombinant PASK using Ulight-peptide substrate incubated for 2 hrs by TR-FRET assay. For orientation: In TR-FRET formats the signal depends on donor and acceptor labels being close together.
The nature of data set [2]: Half life in Sprague-Dawley rat at 1 mg/kg, iv after 0.083 to 24 hrs by LC-MS/MS method. To be noted: in vivo. The data set is classed as ADME, organism-based.

Chain of PAS domain-containing serine/threonine-protein kinase (Q96RG2 whole entry, the tested form may be a part): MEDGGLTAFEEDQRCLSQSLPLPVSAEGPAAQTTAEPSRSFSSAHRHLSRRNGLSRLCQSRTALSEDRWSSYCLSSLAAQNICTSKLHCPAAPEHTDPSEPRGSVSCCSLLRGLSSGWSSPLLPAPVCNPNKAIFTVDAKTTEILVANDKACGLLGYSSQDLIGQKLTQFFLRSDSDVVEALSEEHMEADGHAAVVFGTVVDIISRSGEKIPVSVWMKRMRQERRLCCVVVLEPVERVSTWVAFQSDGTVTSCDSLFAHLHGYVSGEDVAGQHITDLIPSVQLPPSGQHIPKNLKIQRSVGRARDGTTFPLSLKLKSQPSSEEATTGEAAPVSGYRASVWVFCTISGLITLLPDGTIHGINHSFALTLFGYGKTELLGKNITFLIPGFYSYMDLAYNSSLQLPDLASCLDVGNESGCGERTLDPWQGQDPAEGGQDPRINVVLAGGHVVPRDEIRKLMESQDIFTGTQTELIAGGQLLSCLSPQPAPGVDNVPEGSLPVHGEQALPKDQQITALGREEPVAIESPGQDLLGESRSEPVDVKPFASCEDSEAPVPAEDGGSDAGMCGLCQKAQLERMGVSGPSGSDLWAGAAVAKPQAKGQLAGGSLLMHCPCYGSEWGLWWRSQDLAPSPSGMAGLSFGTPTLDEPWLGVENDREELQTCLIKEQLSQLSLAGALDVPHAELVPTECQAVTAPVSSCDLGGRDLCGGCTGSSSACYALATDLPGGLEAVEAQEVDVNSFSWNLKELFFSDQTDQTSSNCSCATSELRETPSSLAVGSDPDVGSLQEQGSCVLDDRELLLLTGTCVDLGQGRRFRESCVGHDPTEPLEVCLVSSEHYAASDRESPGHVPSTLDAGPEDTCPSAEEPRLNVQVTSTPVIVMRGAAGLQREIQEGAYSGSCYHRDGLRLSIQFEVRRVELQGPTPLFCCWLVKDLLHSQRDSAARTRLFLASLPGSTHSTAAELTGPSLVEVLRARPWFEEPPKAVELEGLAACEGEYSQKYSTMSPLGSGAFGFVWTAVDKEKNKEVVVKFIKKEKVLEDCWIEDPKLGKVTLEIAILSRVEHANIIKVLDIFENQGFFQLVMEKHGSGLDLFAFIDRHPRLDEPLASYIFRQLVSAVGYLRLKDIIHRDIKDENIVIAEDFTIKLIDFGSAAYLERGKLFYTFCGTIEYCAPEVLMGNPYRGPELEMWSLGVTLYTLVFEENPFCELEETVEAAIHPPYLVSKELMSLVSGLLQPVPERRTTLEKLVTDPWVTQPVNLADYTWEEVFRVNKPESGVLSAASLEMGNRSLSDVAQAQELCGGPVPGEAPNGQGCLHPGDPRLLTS

The term IC50 denotes the concentration needed to halve the response being measured. On to `CC(C)N(C)c1nc2cc(C(=O)O)ccc2nc1-c1nc2ccccc2o1`, for which the IC50 in data set [1] was no more than 10 µM.
The same measure, in the same setting: the same measure for `COc1ccc(-c2nc3ccc(C(=O)O)cc3nc2N(C)C(C)C)cn1`: no more than 10 µM.
The term half-life denotes how long it takes for the measured level to halve. The low end stands for rapid decline, the high end for slow decline. Take `C[C@H]1COCCN1c1nc2cc(C(=O)O)ccc2nc1-c1ccc(F)cc1`: the half-life in data set [2] is 7.72 h.

The values are drawn from ChEMBL document CHEMBL3714726, “Substituted quinoxaline carboxylic acids for the inhibition of PASK” (2014).
